Data from patent US20090227507A1, “Angiotensin (1-7) Dosage Forms and Uses Thereof” (UNIVERSITY OF SOUTHERN CALIFORNIA, priority 2008, published 2009).

Tested on: CD8 cells in peripheral blood
Assay: Flow cytometry of peripheral blood, CD8 lymphocytes; USB003 SC once daily for 7 days in healthy men
Type: in vivo, human
Parameters: key to Subjects with shift, Absolute CD8, N-L (normal to low) / Subjects with shift, Absolute CD8, L-N (low to normal) / Subjects with shift, Absolute CD8, H-N (high to normal) / Subjects with shift, Absolute CD8, N-H (normal to high): — signifies subject with no shift from baseline
Conditions: for CD8, Absolute, Mean at Baseline: Baseline (Day 1)
Procedure: • Single-center, randomized, double-blind, placebo-controlled, 2 cohort dose-escalation trial of once daily dosing over a 7-day period (7 doses total): • Cohort 1: 2 subjects treated with placebo and 8 subjects treated with 200 μg/kg USB003 (A(1-7)) • Cohort 2: 2 subjects treated with placebo and 8 subjects treated with 300 μg/kg USB003 • For each cohort, there was a Screening Period, Treatment Phase, Follow-up Period, and Study Termination or Early Withdrawal Day. Subjects were confined to the study unit during the Treatment Phase. • Cohort 2 was treated approximately 1 week after completion of the Treatment Phase for Cohort 1 to allow time for the assessment of safety and tolerability in the first cohort.
Pharmacological Effect: The following evaluations (under efficacy and safety in the protocol) were performed: • Effects on the number of mature blood cells: • 1. CBC (with differential), platelet count, reticulocyte count. • Effects on early hematopoietic progenitor cells and mature lymphocyte subsets in the periphery: • 1. Flow cytometry to evaluate frequency of peripheral blood progenitor cells (eg, CD34^+) and lymphocyte subsets (eg, CD3, CD4, CD8) in peripheral blood. • 2. Collection of blood for later possible culture for progenitor cells (eg, colony forming units-granulocyte/macrophage [CFU-GM]) to evaluate potential effects on CD34^+ hematopoietic progenitor cells in peripheral blood. • 3.
The effect of USB003 on the number of mature blood cells was assessed by the complete blood count with differential, platelet and reticulocyte counts. The effects on early hematopoietic progenitor cells and mature lymphocyte subsets in the periphery were assessed by flow cytometry. In addition, blood was collected and processed to enable culture of progenitors at a later time.
Red blood cell (RBC) count, RBC indices, white blood cell count (WBC) with differential, reticulocyte count, platelet count, hemoglobin (Hb), hematocrit (Hct), plasma hemoglobin, peripheral flow cytometry, including CD34^+, flow cytometry for enumeration of CD3, CD4, and CD8 lymphocytes, and culture for progenitor cells in peripheral blood including colony-forming units-granulocyte/macrophage (CFU-GM).

Substance: Asp-Arg-Val-Tyr-Ile-His-Pro [USB003]
- CD8, Absolute, Mean at Baseline (200 μg/kg): 564.6 cells/μL
- Subjects with shift, Absolute CD8, H-N (high to normal) (200 μg/kg, Baseline to Day 8): —
- Subjects with shift, Absolute CD8, L-N (low to normal) (200 μg/kg, Baseline to Day 8): —
- Subjects with shift, Absolute CD8, N-H (normal to high) (200 μg/kg, Baseline to Day 8): 1
- Subjects with shift, Absolute CD8, N-L (normal to low) (200 μg/kg, Baseline to Day 8): —
- Subjects with shift, Absolute CD8, H-N (high to normal) (200 μg/kg, Baseline to Day 20): —
- Subjects with shift, Absolute CD8, L-N (low to normal) (200 μg/kg, Baseline to Day 20): —
- Subjects with shift, Absolute CD8, N-H (normal to high) (200 μg/kg, Baseline to Day 20): —
- Subjects with shift, Absolute CD8, N-L (normal to low) (200 μg/kg, Baseline to Day 20): —
- CD8, Absolute, Mean Change from Baseline (200 μg/kg, Day 3): −34.2 cells/μL
- CD8, Absolute, Mean Change from Baseline (200 μg/kg, Day 5): 31.9 cells/μL
- CD8, Absolute, Mean Change from Baseline (200 μg/kg, Day 7): 0.0 cells/μL
- CD8, Absolute, Mean Change from Baseline (200 μg/kg, Day 8): −3.3 cells/μL
- CD8, Absolute, Mean Change from Baseline (200 μg/kg, Day 17): −52.8 cells/μL
- CD8, Absolute, Mean Change from Baseline (200 μg/kg, Day 20): −31.7 cells/μL
- CD8, Absolute, Mean at Baseline (300 μg/kg): 452.1 cells/μL
- Subjects with shift, Absolute CD8, H-N (high to normal) (300 μg/kg, Baseline to Day 8): —
- Subjects with shift, Absolute CD8, L-N (low to normal) (300 μg/kg, Baseline to Day 8): —
- Subjects with shift, Absolute CD8, N-H (normal to high) (300 μg/kg, Baseline to Day 8): 1
- Subjects with shift, Absolute CD8, N-L (normal to low) (300 μg/kg, Baseline to Day 8): —
- Subjects with shift, Absolute CD8, H-N (high to normal) (300 μg/kg, Baseline to Day 20): —
- Subjects with shift, Absolute CD8, L-N (low to normal) (300 μg/kg, Baseline to Day 20): —
- Subjects with shift, Absolute CD8, N-H (normal to high) (300 μg/kg, Baseline to Day 20): —
- Subjects with shift, Absolute CD8, N-L (normal to low) (300 μg/kg, Baseline to Day 20): —
- CD8, Absolute, Mean Change from Baseline (300 μg/kg, Day 3): 59.5 cells/μL
- CD8, Absolute, Mean Change from Baseline (300 μg/kg, Day 5): 71.0 cells/μL
- CD8, Absolute, Mean Change from Baseline (300 μg/kg, Day 7): 93.6 cells/μL
- CD8, Absolute, Mean Change from Baseline (300 μg/kg, Day 8): 45.1 cells/μL
- CD8, Absolute, Mean Change from Baseline (300 μg/kg, Day 17): −47.3 cells/μL
- CD8, Absolute, Mean Change from Baseline (300 μg/kg, Day 20): 26.8 cells/μL
